The results in this text go back to ChEMBL document CHEMBL1201862, “PubChem BioAssay data set” (2004).

Among the test systems are M19-MEL; HOP-62; SF-295; UACC-62; SK-MEL-5; CAKI-1; SNB-75; UACC-257; NCI-H23; HCC 2998; DMS-273; OVCAR-4; SK-MEL-2; DLD-1; HCT-15; KM12; SR; OVCAR-3.
Holding throughout (experiment): NCI-60 cell line screen, 48 h

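All cell lines were grown in 96-well plates and treated with compound for 48 hours. Here, GI50 denotes the concentration required for 50% inhibition of growth.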 Calls of active or inactive are those of the source. No stated cut-off is given here; in the data, active = GI50 up to about 1.1 µM and inactive = higher.

As to `CCC1C(=O)OCc2c1cc1n(c2=O)CCC12OCCO2` (stereo not given), the GI50 with M19-MEL, in the assay with HOP-62, in the assay on SF-295, in the assay with UACC-62, in the assay on SK-MEL-5 and with CAKI-1 was > 100 µM (inactive) in each case. Also, the GI50 in the assay on SNB-75 is > 100 µM (inactive); in the assay on UACC-257, > 100 µM (inactive); in the assay with NCI-H23 it was > 100 µM (inactive); in the assay with HCC 2998, 63.8 µM (inactive); in the assay with DMS-273, > 100 µM (inactive); in the assay with OVCAR-4, > 100 µM (inactive). The GI50 in the assay with SK-MEL-2 is > 100 µM (inactive); with DLD-1, > 100 µM (inactive); with HCT-15 it was greater than 100 µM; in the assay on KM12, > 100 µM (inactive); in the assay on SR, > 100 µM (inactive).
For the compound `Cc1ccc(S(=O)(=O)C2c3nc4ccccc4cc3-c3nc4ccccc4nc32)cc1` (stereo not given), the GI50 in the assay on M19-MEL is > 100 µM (inactive); with HOP-62, > 100 µM (inactive); with OVCAR-3, > 100 µM (inactive); with UACC-62, > 100 µM (inactive); in the assay with SK-MEL-5, 51.8 µM (inactive); with CAKI-1 it was > 100 µM (inactive). For the same compound, the GI50 in the assay with SNB-75 was 53.8 µM (inactive); in the assay on UACC-257, > 100 µM (inactive); in the assay on NCI-H23, > 100 µM (inactive); in the assay on HCC 2998 it was > 100 µM (inactive); in the assay with DMS-273, > 100 µM (inactive); in the assay on OVCAR-4, > 100 µM (inactive). For the same compound, the GI50 in the assay with SK-MEL-2 is > 100 µM (inactive); in the assay with DLD-1, > 100 µM (inactive); with HCT-15, greater than 100 µM; in the assay with KM12, > 100 µM (inactive); in the assay on SR, > 100 µM (inactive).
For the compound `O=S1(=O)CSc2ccc3ccccc3c2-c2c1ccc1ccccc21`, the GI50 in the assay on M19-MEL, in the assay on HOP-62, in the assay on OVCAR-3, in the assay on SF-295, in the assay on UACC-62 and in the assay with SK-MEL-5 was > 100 µM (inactive) each time. In addition, the GI50 in the assay on CAKI-1, in the assay with SNB-75, in the assay on UACC-257, in the assay on NCI-H23, in the assay on HCC 2998 and in the assay with DMS-273 was > 100 µM (inactive) in each case. Moreover, the GI50 in the assay on OVCAR-4, with DLD-1, in the assay on KM12 and with SR was > 100 µM (inactive) throughout.
In the case of `COc1cc(C(N)=O)c(OC)c(OC)c1OC`, the GI50 with M19-MEL, in the assay with HOP-62, in the assay on OVCAR-3, with SF-295, in the assay with UACC-62 and with SK-MEL-5 was > 100 µM (inactive) each time. For the same compound, the GI50 in the assay with SNB-75 is 69.8 µM (inactive); in the assay on NCI-H23, > 100 µM (inactive); in the assay on HCC 2998, > 100 µM (inactive); with DMS-273, > 100 µM (inactive); in the assay with OVCAR-4, > 100 µM (inactive); in the assay with SK-MEL-2, > 100 µM (inactive). In addition, the GI50 in the assay with DLD-1 is > 100 µM (inactive); in the assay with HCT-15, greater than 100 µM; in the assay with KM12, > 100 µM (inactive).
As for `NC(=S)N/N=C1\C(=O)N(c2cccc([N+](=O)[O-])c2)C(=O)C1C(=O)Nc1cccc([N+](=O)[O-])c1` (stereo not given), the GI50 in the assay with M19-MEL, with HOP-62, in the assay on OVCAR-3, in the assay with SF-295, with UACC-62 and with SK-MEL-5 was > 100 µM (inactive) in each case. Moreover, the GI50 with CAKI-1, in the assay on SNB-75, in the assay with UACC-257, in the assay on NCI-H23, with HCC 2998 and in the assay on DMS-273 was > 100 µM (inactive) each time. The GI50 in the assay with OVCAR-4 was > 100 µM (inactive); in the assay on SK-MEL-2, > 100 µM (inactive); with DLD-1, > 100 µM (inactive); with HCT-15, greater than 100 µM.
For `O=C(O)c1c[nH]c2c(ccc3ncccc32)c1=O`, the GI50 in the assay on M19-MEL, in the assay on HOP-62, with OVCAR-3, with UACC-62, in the assay on SK-MEL-5 and in the assay on SNB-75 was > 100 µM (inactive) in each case. Besides, the GI50 with NCI-H23, in the assay with HCC 2998, in the assay with DMS-273, with OVCAR-4, with SK-MEL-2 and in the assay with DLD-1 was > 100 µM (inactive) throughout. For the same compound, the results for the GI50 in the assay with HCT-15, in the assay on KM12 and in the assay on SR were greater than 100 µM, > 100 µM (inactive) and > 100 µM (inactive), respectively.
In the case of `CC(=O)OCC1OC(OC2C(CSC3OC(COC(C)=O)C(OC(C)=O)C(OC(C)=O)C3OC(C)=O)OC(OC(C)=O)C(OC(C)=O)C2OC(C)=O)C(OC(C)=O)C(OC(C)=O)C1OC(C)=O` (stereo not given), the GI50 in the assay on M19-MEL, in the assay on HOP-62, in the assay with OVCAR-3, with SF-295, in the assay with UACC-62 and in the assay with SK-MEL-5 was > 100 µM (inactive) throughout. The GI50 with CAKI-1, in the assay on SNB-75, in the assay with NCI-H23, in the assay on HCC 2998, in the assay with DMS-273 and in the assay on OVCAR-4 was > 100 µM (inactive) each time. In addition, the GI50 was > 100 µM (inactive) with DLD-1, greater than 100 µM with HCT-15, > 100 µM (inactive) in the assay with KM12 and > 100 µM (inactive) in the assay on SR.
For `CN(C)CC1CCCC/C1=N/O` (stereo not given), the GI50 in the assay with M19-MEL, with HOP-62, in the assay with OVCAR-3, with SF-295, in the assay with UACC-62 and in the assay on SK-MEL-5 was > 100 µM (inactive) in each case. Also, the GI50 with CAKI-1, in the assay with SNB-75, in the assay with UACC-257, in the assay with NCI-H23, with HCC 2998 and with DMS-273 was > 100 µM (inactive) throughout. For the same compound, the GI50 is > 100 µM (inactive) in the assay on OVCAR-4; > 100 µM (inactive) in the assay with SK-MEL-2; > 100 µM (inactive) with DLD-1; greater than 100 µM in the assay with HCT-15; > 100 µM (inactive) in the assay on KM12.
For the compound `[O-][S+]1c2ccccc2N=C(c2ccc3ccccc3c2)CC1c1ccccc1F` (stereo not given), the GI50 in the assay with M19-MEL, in the assay on HOP-62, in the assay with OVCAR-3, with SF-295, in the assay on UACC-62 and with SK-MEL-5 was > 100 µM (inactive) each time. Moreover, the GI50 in the assay on CAKI-1 is > 100 µM (inactive); with SNB-75, 20.5 µM (inactive); in the assay on UACC-257, > 100 µM (inactive); in the assay with NCI-H23, > 100 µM (inactive); in the assay on HCC 2998, > 100 µM (inactive); with DMS-273, > 100 µM (inactive). Besides, the GI50 with OVCAR-4 is > 100 µM (inactive); with SK-MEL-2, > 100 µM (inactive); in the assay on DLD-1 it was > 100 µM (inactive); in the assay with HCT-15 it was greater than 100 µM; with KM12, > 100 µM (inactive).
Turning to `O=S1(=O)c2ccccc2N(O)C2=NCCN21`, the GI50 in the assay on M19-MEL, with HOP-62, in the assay on OVCAR-3, in the assay on SF-295, in the assay on UACC-62 and in the assay with SK-MEL-5 was > 100 µM (inactive) each time. The GI50 in the assay with CAKI-1, with SNB-75, in the assay with UACC-257, with NCI-H23, in the assay on HCC 2998 and in the assay on DMS-273 was > 100 µM (inactive) each time. The GI50 in the assay with SK-MEL-2, in the assay on DLD-1, in the assay with KM12 and in the assay on SR was > 100 µM (inactive) throughout.
Regarding `CC1OC(OC2C(OC(=O)[C@]34CCC(C)(C)CC3C3=CCC5[C@@]6(C)C[C@H](O)[C@H](OC7OC(COC8OC(CO)C(O)C(O)C8O)C(O)C(O)C7O)[C@@](C)(C(=O)O)C6CC[C@@]5(C)C3(C)CC4)OCC(O)C2O)C(O)C(O)C1OC1OCC(O)C(O)C1O` (stereo not given in full), the GI50 in the assay with M19-MEL, with HOP-62, in the assay with OVCAR-3, with SF-295, in the assay on UACC-62 and with SK-MEL-5 was > 100 µM (inactive) in each case. The GI50 in the assay with CAKI-1, with SNB-75, in the assay on UACC-257, with NCI-H23, with HCC 2998 and with DMS-273 was > 100 µM (inactive) throughout. Further, the GI50 in the assay on SK-MEL-2 is > 100 µM (inactive); in the assay with DLD-1, > 100 µM (inactive); in the assay with HCT-15, greater than 100 µM; in the assay on KM12, > 100 µM (inactive).
Regarding `O=C(Cc1nc2ccccc2c(=O)n1-c1ccccc1Cl)c1ccncc1`, the GI50 in the assay on M19-MEL, in the assay on HOP-62, with OVCAR-3, in the assay on SF-295, with UACC-62 and in the assay with SK-MEL-5 was > 100 µM (inactive) each time. Moreover, the GI50 in the assay with CAKI-1 was > 100 µM (inactive); with SNB-75 it was 15 µM (inactive); in the assay with UACC-257 it was > 100 µM (inactive); with NCI-H23 it was > 100 µM (inactive); in the assay with HCC 2998, > 100 µM (inactive); with DMS-273 it was > 100 µM (inactive). In addition, the GI50 in the assay on OVCAR-4 was 68.2 µM (inactive); in the assay on SK-MEL-2 it was > 100 µM (inactive); with DLD-1 it was > 100 µM (inactive); with HCT-15, greater than 100 µM; with KM12 it was > 100 µM (inactive).
